Earlier results, collected in patent US10849867B2, “Methods and compositions for treating conditions associated with an abnormal inflammatory response” (First Wave Bio, Inc., priority 2015, dated 2020).

Conditions: at 20° C.; cited from earlier work

NCCO.O=C(Nc1ccc([N+](=O)[O-])cc1Cl)c1cc(Cl)ccc1O [ethanol amine salt, 5-chloro-N-(2-chloro-4-nitrophenyl)-2-hydroxybenzamide with 2-aminoethanol (1.1)]
dissolves in distilled water: 180 to 280 mg/L
